Test results published in patent US20050100561A1, “Use of topical compositions for the control of microbial diseases of the nail” (priority 2002, published 2005).
Marks after values point to notes of the source that are not given here.

Experiments:
onychomycosis = assay: Treatment of onychomycosis with topical copper silicate (cream or solution), patient trial; assay type: in vivo, human; settings: for Clinical - 100% clear / Clinical - New growth clear / Complete cure (KOH negative, culture negative and 100% clear) / Mycology (KOH negative and culture negative) / Mycology (KOH negative or culture negative): interim, applied twice daily
Protocol: Subjects, not already receiving anti-fungal treatment, were assessed for clinical diagnosis of onychomycosis and photographs and nail clippings were taken. Those testing positive for onychomycosis were admitted to the trial.
The anti-fungal composition (cream or solution) was applied to the infected nail twice daily for the duration of the treatment.
Estimates of the nail area involved were made during clinical visits and photographs were taken. Nail clippings were collected for KOH and dermatophyte culture. […] Results
The results presented hereunder are interim results of a 12 month study. Patients entered the trial and commenced their treatment at different dates. […] Patients were assessed at 0 (commencement). 6 weeks and 12 weeks.

Trichophyton rubrum = settings: modal value, n=26
[1] = tested on: T. mentagrophytes var interdigitale; settings: modal value, n=19
T. mentagrophytes = settings: modal value, n=12
T. tonsurans = settings: modal value, n=10
Epidermophyton floccosum = settings: modal value, n=11
Microsporum canis = settings: modal value, n=9
M. gypseum = settings: modal value, n=9
Aspergillus flavus = settings: modal value, n=12
A. fumigatus = settings: modal value, n=12
A. niger = settings: modal value, n=14
A. terrus = settings: modal value, n=7
Fusarium spp. = settings: modal value, n=16
Scopulariopsis spp. = settings: modal value, n=5
Scedosporium spp. = settings: modal value, n=5
Candida albicans = settings: modal value, n=10
C. tropicalis = settings: modal value, n=10
C. parasilosis = settings: modal value, n=10
C. glabrate = settings: modal value, n=4
[2] = tested on: C. pseudotropicalis (kefyr); settings: modal value, n=1
C. krusei = settings: modal value, n=1
[3] = Post-treatment Week 13 (N = 18)
[4] = Post-treatment Week 13 (N = 18), = 39 weeks
[5] = Post-treatment Week 26 (N = 18)
[6] = Treatment time Week 12 (N = 18)
[7] = Treatment time Week 26 (N = 18)

copper silicate
Patients culture negative (onychomycosis; 13 weeks post-treatment): 55%
Patients "effectively treated" (onychomycosis; 26 weeks post treatment): 22%
% Nail infected 0% (clear), number of patients (onychomycosis; [3]): 3
% Nail infected 1-10%, number of patients (onychomycosis; [3]): 1
% Nail infected 11-50%, number of patients (onychomycosis; [3]): 6
% Nail infected >50%, number of patients (onychomycosis; [3]): 8
Dermatophyte culture Positive, number of patients (onychomycosis; [3]): 8
Infecting organism T. mentagrophytes v. interdigitale, number of patients (onychomycosis; [3]): 1
Infecting organism T. rubrum, number of patients (onychomycosis; [3]): 7
KOH Negative, number of patients (onychomycosis; [3]): 4
KOH Positive, number of patients (onychomycosis; [3]): 14
New growth Clear, number of patients (onychomycosis; [3]): 15
New growth Not clear, number of patients (onychomycosis; [3]): 3
Outcome Complete cure, number of patients (onychomycosis; [3]): 3
Outcome Effective treatment, number of patients (onychomycosis; [3]): 3
Outcome Mycological cure, number of patients (onychomycosis; [3]): 3
Dermatophyte culture Negative, number of patients (onychomycosis; [4]): 10
Outcome Mycological change (culture positive to culture negative), number of patients (onychomycosis; [4]): 7
Outcome Not effective, number of patients (onychomycosis; Post-treatment Week 13 (N = 18), includes 1 patient that is KOH negative): 8^@
% Nail infected 0% (clear), number of patients (onychomycosis; [5]): 3
% Nail infected 1-10%, number of patients (onychomycosis; [5]): 2
% Nail infected 11-50%, number of patients (onychomycosis; [5]): 6
% Nail infected >50%, number of patients (onychomycosis; [5]): 7
Dermatophyte culture Positive, number of patients (onychomycosis; [5]): 9
Infecting organism T. mentagrophytes v. interdigitale, number of patients (onychomycosis; [5]): 1
Infecting organism T. rubrum, number of patients (onychomycosis; [5]): 8
KOH Negative, number of patients (onychomycosis; [5]): 6
KOH Positive, number of patients (onychomycosis; [5]): 12
New growth Clear, number of patients (onychomycosis; [5]): 15
New growth Not clear, number of patients (onychomycosis; [5]): 3
Outcome Effective treatment, number of patients (onychomycosis; [5]): 4
Outcome Mycological change (culture positive to culture negative), number of patients (onychomycosis; [5]): 5
Outcome Mycological cure, number of patients (onychomycosis; [5]): 4
Outcome Complete cure, number of patients (onychomycosis; Post-treatment Week 26 (N = 18), = 52 weeks): 3
Dermatophyte culture Negative, number of patients (onychomycosis; Post-treatment Week 26 (N = 18), = 52 weeks, end of the trial): 9
Outcome Not effective, number of patients (onychomycosis; Post-treatment Week 26 (N = 18), includes 1 patient that is KOH negative): 9^@
% Nail infected 0% (clear), number of patients (onychomycosis; Treatment time Week 6 (N = 18)): 0
% Nail infected 1-10%, number of patients (onychomycosis; Treatment time Week 6 (N = 18)): 2
% Nail infected 11-50%, number of patients (onychomycosis; Treatment time Week 6 (N = 18)): 5
% Nail infected >50%, number of patients (onychomycosis; Treatment time Week 6 (N = 18)): 11
Dermatophyte culture Negative, number of patients (onychomycosis; Treatment time Week 6 (N = 18)): 10
Dermatophyte culture Positive, number of patients (onychomycosis; Treatment time Week 6 (N = 18)): 8
Infecting organism T. mentagrophytes v. interdigitale, number of patients (onychomycosis; Treatment time Week 6 (N = 18)): 1
Infecting organism T. rubrum, number of patients (onychomycosis; Treatment time Week 6 (N = 18)): 7
KOH Negative, number of patients (onychomycosis; Treatment time Week 6 (N = 18)): 4
KOH Positive, number of patients (onychomycosis; Treatment time Week 6 (N = 18)): 14
New growth Clear, number of patients (onychomycosis; Treatment time Week 6 (N = 18)): 11
New growth Not clear, number of patients (onychomycosis; Treatment time Week 6 (N = 18)): 7
Outcome Complete cure, number of patients (onychomycosis; Treatment time Week 6 (N = 18)): 0
Outcome Effective treatment, number of patients (onychomycosis; Treatment time Week 6 (N = 18)): 2
Outcome Mycological change (culture positive to culture negative), number of patients (onychomycosis; Treatment time Week 6 (N = 18)): 6
Outcome Mycological cure, number of patients (onychomycosis; Treatment time Week 6 (N = 18)): 4
Outcome Not effective, number of patients (onychomycosis; Treatment time Week 6 (N = 18), includes 2 patients that are KOH negative): 8^#
% Nail infected 0% (clear), number of patients (onychomycosis; [6]): 3
% Nail infected 1-10%, number of patients (onychomycosis; [6]): 1
% Nail infected 11-50%, number of patients (onychomycosis; [6]): 4
% Nail infected >50%, number of patients (onychomycosis; [6]): 10
Dermatophyte culture Negative, number of patients (onychomycosis; [6]): 11
Dermatophyte culture Positive, number of patients (onychomycosis; [6]): 7
Infecting organism T. mentagrophytes v. interdigitale, number of patients (onychomycosis; [6]): 1
Infecting organism T. rubrum, number of patients (onychomycosis; [6]): 6
KOH Negative, number of patients (onychomycosis; [6]): 4
KOH Positive, number of patients (onychomycosis; [6]): 14
New growth Clear, number of patients (onychomycosis; [6]): 16
New growth Not clear, number of patients (onychomycosis; [6]): 2
Outcome Complete cure, number of patients (onychomycosis; [6]): 2
Outcome Effective treatment, number of patients (onychomycosis; [6]): 3
Outcome Mycological change (culture positive to culture negative), number of patients (onychomycosis; [6]): 8
Outcome Mycological cure, number of patients (onychomycosis; [6]): 3
Outcome Not effective, number of patients (onychomycosis; Treatment time Week 12 (N = 18), includes 1 patient that is KOH negative): 7^@
% Nail infected 0% (clear), number of patients (onychomycosis; [7]): 3
% Nail infected 1-10%, number of patients (onychomycosis; [7]): 1
% Nail infected 11-50%, number of patients (onychomycosis; [7]): 8
% Nail infected >50%, number of patients (onychomycosis; [7]): 6
Dermatophyte culture Negative, number of patients (onychomycosis; [7]): 12
Dermatophyte culture Positive, number of patients (onychomycosis; [7]): 6
Infecting organism T. mentagrophytes v. interdigitale, number of patients (onychomycosis; [7]): 1
Infecting organism T. rubrum, number of patients (onychomycosis; [7]): 5
KOH Negative, number of patients (onychomycosis; [7]): 6
KOH Positive, number of patients (onychomycosis; [7]): 12
New growth Clear, number of patients (onychomycosis; [7]): 16
New growth Not clear, number of patients (onychomycosis; [7]): 2
Outcome Complete cure, number of patients (onychomycosis; [7]): 3
Outcome Effective treatment, number of patients (onychomycosis; [7]): 3
Outcome Mycological change (culture positive to culture negative), number of patients (onychomycosis; [7]): 7
Outcome Mycological cure, number of patients (onychomycosis; [7]): 5
Outcome Not effective, number of patients (onychomycosis; Treatment time Week 26 (N = 18), includes 1 patient that is KOH negative): 6^@
"Mycological cure" patients (onychomycosis; after 26 weeks): 28%
Patients with >50% of nail plate diseased having significant clinical improvement (reduction to <50% of the nail plate) (onychomycosis; at 26 weeks): 50%
"Mycological cure" rate (onychomycosis; at 52 weeks): 22%
Patients culture negative (onychomycosis; end of the trial): 50%
Patients culture negative (onychomycosis; end of treatment): 67%
Clinical - 100% clear (onychomycosis; 6 Weeks (n = 13)): 0 % of Patients
Clinical - New growth clear (onychomycosis; 6 Weeks (n = 13)): 61 % of Patients
Complete cure (KOH negative, culture negative and 100% clear) (onychomycosis; 6 Weeks (n = 13)): 0 % of Patients
Mycology (KOH negative and culture negative) (onychomycosis; 6 Weeks (n = 13)): 0 % of Patients
Mycology (KOH negative or culture negative) (onychomycosis; 6 Weeks (n = 13)): 53 % of Patients
Clinical - 100% clear (onychomycosis; 12 Weeks (n = 10)): 30 % of Patients
Clinical - New growth clear (onychomycosis; 12 Weeks (n = 10)): 70 % of Patients
Complete cure (KOH negative, culture negative and 100% clear) (onychomycosis; 12 Weeks (n = 10)): 20 % of Patients
Mycology (KOH negative and culture negative) (onychomycosis; 12 Weeks (n = 10)): 20 % of Patients
Mycology (KOH negative or culture negative) (onychomycosis; 12 Weeks (n = 10)): 80 % of Patients
Minimum Fungicidal Concentration (MFC) (Trichophyton rubrum): 0.0350 % w/w as Cu
Minimum Inhibitory Concentration (MIC) (Trichophyton rubrum): 0.0175 % w/w as Cu
Minimum Fungicidal Concentration (MFC) [1]: 0.0350 % w/w as Cu
Minimum Inhibitory Concentration (MIC) [1]: 0.0175 % w/w as Cu
Minimum Fungicidal Concentration (MFC) (T. mentagrophytes): 0.0350 % w/w as Cu
Minimum Inhibitory Concentration (MIC) (T. mentagrophytes): 0.0175 % w/w as Cu
Minimum Fungicidal Concentration (MFC) (T. tonsurans): 0.0350 % w/w as Cu
Minimum Inhibitory Concentration (MIC) (T. tonsurans): 0.0350 % w/w as Cu
Minimum Fungicidal Concentration (MFC) (Epidermophyton floccosum): 0.0350 % w/w as Cu
Minimum Inhibitory Concentration (MIC) (Epidermophyton floccosum): 0.0350 % w/w as Cu
Minimum Fungicidal Concentration (MFC) (Microsporum canis): 0.0700 % w/w as Cu
Minimum Inhibitory Concentration (MIC) (Microsporum canis): 0.0350 % w/w as Cu
Minimum Fungicidal Concentration (MFC) (M. gypseum): 0.1400 % w/w as Cu
Minimum Inhibitory Concentration (MIC) (M. gypseum): 0.0350 % w/w as Cu
Minimum Fungicidal Concentration (MFC) (Aspergillus flavus): >0.1400 % w/w as Cu
Minimum Inhibitory Concentration (MIC) (Aspergillus flavus): 0.1400 % w/w as Cu
Minimum Fungicidal Concentration (MFC) (A. fumigatus): >0.1400 % w/w as Cu
Minimum Inhibitory Concentration (MIC) (A. fumigatus): 0.0350 % w/w as Cu
Minimum Fungicidal Concentration (MFC) (A. niger): 0.1400 % w/w as Cu
Minimum Inhibitory Concentration (MIC) (A. niger): 0.0350 % w/w as Cu
Minimum Fungicidal Concentration (MFC) (A. terrus): >0.1400 % w/w as Cu
Minimum Inhibitory Concentration (MIC) (A. terrus): 0.0700 % w/w as Cu
Minimum Fungicidal Concentration (MFC) (Fusarium spp.): 0.0700 % w/w as Cu
Minimum Inhibitory Concentration (MIC) (Fusarium spp.): 0.0700 % w/w as Cu
Minimum Fungicidal Concentration (MFC) (Scopulariopsis spp.): >0.1400 % w/w as Cu
Minimum Inhibitory Concentration (MIC) (Scopulariopsis spp.): 0.0350 % w/w as Cu
Minimum Fungicidal Concentration (MFC) (Scedosporium spp.): >0.1400 % w/w as Cu
Minimum Inhibitory Concentration (MIC) (Scedosporium spp.): 0.0350 % w/w as Cu
Minimum Fungicidal Concentration (MFC) (Candida albicans): 0.0700 % w/w as Cu
Minimum Inhibitory Concentration (MIC) (Candida albicans): 0.0350 % w/w as Cu
Minimum Fungicidal Concentration (MFC) (C. tropicalis): 0.0700 % w/w as Cu
Minimum Inhibitory Concentration (MIC) (C. tropicalis): 0.0350 % w/w as Cu
Minimum Fungicidal Concentration (MFC) (C. parasilosis): 0.0350 % w/w as Cu
Minimum Inhibitory Concentration (MIC) (C. parasilosis): 0.0350 % w/w as Cu
Minimum Fungicidal Concentration (MFC) (C. glabrate): 0.1400 % w/w as Cu
Minimum Inhibitory Concentration (MIC) (C. glabrate): 0.0350 % w/w as Cu
Minimum Fungicidal Concentration (MFC) [2]: 0.0350 % w/w as Cu
Minimum Inhibitory Concentration (MIC) [2]: 0.0350 % w/w as Cu
Minimum Fungicidal Concentration (MFC) (C. krusei): 0.0175 % w/w as Cu
Minimum Inhibitory Concentration (MIC) (C. krusei): 0.0175 % w/w as Cu
